# In US7442696B2, “Mineralocorticoid receptor modulator compounds, processes for their preparation, and their uses” (Ligand Pharmaceuticals, Inc., priority 2004, dated 2008):
# pKi: −log10 of the molar value.
# Biological target: T1, human mineralocorticoid receptor protein (MR) (Homo sapiens, UniProt P08235)
# T1 construct: made in house; host or cells: Spodoptera frugiperda Sf21 insect cells (baculovirus)
# T1 sequence (P08235 1-984): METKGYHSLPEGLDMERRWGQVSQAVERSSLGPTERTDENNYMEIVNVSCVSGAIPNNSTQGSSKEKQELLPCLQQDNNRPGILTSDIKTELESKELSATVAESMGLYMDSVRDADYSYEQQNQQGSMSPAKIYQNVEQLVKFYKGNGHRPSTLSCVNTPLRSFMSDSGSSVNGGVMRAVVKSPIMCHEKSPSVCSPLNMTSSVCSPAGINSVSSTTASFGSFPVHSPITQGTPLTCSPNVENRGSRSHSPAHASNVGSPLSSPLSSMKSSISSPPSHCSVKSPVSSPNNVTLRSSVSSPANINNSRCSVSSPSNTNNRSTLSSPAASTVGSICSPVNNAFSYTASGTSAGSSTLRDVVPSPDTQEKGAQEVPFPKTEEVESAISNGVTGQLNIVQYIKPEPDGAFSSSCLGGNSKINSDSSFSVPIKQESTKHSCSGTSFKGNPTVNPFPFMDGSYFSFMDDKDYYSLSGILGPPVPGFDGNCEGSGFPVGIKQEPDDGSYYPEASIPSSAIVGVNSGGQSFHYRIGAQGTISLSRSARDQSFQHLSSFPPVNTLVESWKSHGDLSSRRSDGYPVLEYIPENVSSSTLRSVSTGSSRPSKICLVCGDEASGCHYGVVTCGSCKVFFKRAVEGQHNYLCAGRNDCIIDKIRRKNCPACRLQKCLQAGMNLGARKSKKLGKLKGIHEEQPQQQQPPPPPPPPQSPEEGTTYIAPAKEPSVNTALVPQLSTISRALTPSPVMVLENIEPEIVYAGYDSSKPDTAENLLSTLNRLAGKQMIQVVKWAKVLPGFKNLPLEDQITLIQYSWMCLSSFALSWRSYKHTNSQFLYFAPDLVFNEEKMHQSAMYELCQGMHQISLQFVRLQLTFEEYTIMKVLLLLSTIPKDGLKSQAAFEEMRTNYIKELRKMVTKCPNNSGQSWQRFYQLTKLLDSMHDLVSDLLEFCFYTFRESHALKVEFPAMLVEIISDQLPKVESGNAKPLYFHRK
# Test: Mineralocorticoid receptor binding assay ([3H]aldosterone competition, MR lysate)
# Conditions: baculovirus-expressed MR lysate from Sf21 cells; 2-4 nM [3H]aldosterone; 16 hours at 4° C.; Cheng-Prusoff from IC50
# Protocol: A baculovirus expression plasmid comprising cDNA encoding the human mineralocorticoid receptor protein (MR) was prepared using standard techniques. See e.g. E. A. Allegretto et. al. 268 J. Biol. Chem., 26625 (1993); G. Srinivasan and B. Thompson, 4 Mol. Endo., 209 (1990); and D. R. O'Reilly et. al., in “Baculovirus Expression Vectors”, D. R. O'Reilly et. al., eds., W. H. Freeman, New York, N.Y., pp. 139-179 (1992). That expression plasmid was co-transfected together with wild type Autographa californica multiple nuclear polyhedrosis virus DNA into Spodoptera frugiperda-21 (Sf-21) cells to generate recombinant virus comprising MR cDNA. See e.g. O'Reilly, D. R., Miller, L. K., Luckow, V. A., Regulation of expression of a baculovirus ecdysteroid UDP glucosyltransferase gene. “Baculovirus Expression Vectors.” WH Freeman, NY, 139-179 (1992). That recombinant virus comprising MR cDNA was collected.
# A suspension culture of uninfected Sf21 cells was grown to a density of 1.2×10^6 cells/ml and then infected with the recombinant virus comprising MR cDNA at a multiplicity of infection of 2. Those infected Sf21 cells were incubated for 48 hours and then collected by centrifugation at 1000×g for 10 minutes at 4° C. The resulting cell pellets were resuspended in lysis buffer (50 mM Potassium Phosphate buffer, pH 7.0, 10 mM Monothioglycerol, 5 mM DTT, 20 mM Sodium Molybdate, 1 mM PMSF, 1 μg/mL aprotinin, and 10 μg/mL leupeptin) and incubated for 15 minutes on ice. Those resuspended cell pellets were homogenized using a Dounce homogenizer and a B pestle. A volume of 2 M KCl was added to the homogenized cell pellets to a final concentration of 0.4 M. The resulting MR lysates were centrifuged at 100,000×g for 60 min at 4° C. and stored for use in binding assays.
# Binding assay samples were prepared in separate mini-tubes in a 96-well format at 4° C. Each binding assay sample was prepared in a volume of 250 μl of MR-Assay Buffer (10% glycerol, 10 mM sodium phosphate, 10 mM potassium fluoride, 20 mM sodium molybdate, 0.25 mM CHAPS, 2 mM DTT, (adjusted to pH 7.35)) containing 5-10 μg of MR lysate; 2-4 nM of [^3H]aldosterone; unlabeled aldosterone; and a test compound. Each test compound was assayed at several different concentrations, ranging from 0 to 10^−5 M and each was tested in the presence and in the absence of several different concentrations of unlabeled aldosterone. Each concentration of each test compound was assayed in triplicate. The assay samples were incubated for 16 hours at 4° C.
# After incubation, 200 μl of 6.25% hydroxylapatite in assay buffer was added to each assay sample to precipitate the protein. The assay samples were then centrifuged and the supernatants were discarded. The resulting pellets were washed twice with assay buffer lacking DTT. Radioactivity in counts per minute (CPM) of each washed pellet was determined by liquid scintillation counter (MicroBeta™, Wallach).
# Specific binding for a particular sample was calculated using the equation: (Sample CPM)−(Average Non-specific CPM) Average Non-specific CPM was defined as the amount of radioactivity from samples comprising an excess (i.e. 1000 nM) of unlabeled aldosterone. IC50 values (the concentration of test compound required to decrease specific binding by 50%) were determined using the log-logit (Hill) method. Ki values were determined using the Cheng-Prusoff equation using a previously determined Kd value for aldosterone: Ki=IC50/(1+[L]/Kd) [L]=concentration of labeled aldosterone Kd=dissociation constant of labeled aldosterone Ki values for certain mineralocorticoid receptor binding compounds are shown in Table 1.
row,pKi,Compound
1,6.82,"O=C1Nc2ccc(-c3cccc(C(F)(F)F)c3)c(Cl)c2C(c2ccc(F)cc2)O1 (racemic) [Compound 118, (±)-5-Chloro-4-(4-fluorophenyl)-1,4-dihydro-6-[3-(trifluoromethyl)phenyl]-2H-3,1-benzoxazin-2-one]"
2,6.43,"CC(=O)c1cccc(-c2ccc3c(c2Cl)C(C)(C)OC(=O)N3)c1 [Compound 103, 6-(3-Acetylphenyl)-5-chloro-1,4-dihydro-4,4-dimethyl-2H-3,1-benzoxazin-2-one]"
3,6.36,"CC1(C)OC(=O)Nc2ccc(-c3cccc(C(F)(F)F)c3)c(Cl)c21 [Compound 102, 5-Chloro-1,4-dihydro-4,4-dimethyl-6-[3-(trifluoromethyl)phenyl]-2H-3,1-benzoxazin-2-one]"
4,7.01,"CC1(C)OC(=O)Nc2ccc(-c3cccc(C#N)c3)c(Cl)c21 [Compound 101, 5-Chloro-6-(3-cyanophenyl)-1,4-dihydro-4,4-dimethyl-2H-3,1-benzoxazin-2-one]"
5,7.35,"CC1OC(=S)Nc2ccc(-c3cccc(C(F)(F)F)c3)c(Cl)c21 (racemic) [Compound 111, (±)-5-Chloro-1,4-dihydro-4-methyl-6-[3-(trifluoromethyl)phenyl]-2H-3,1-benzoxazin-2-thione]"
6,7.28,"CC1(C)OC(=S)Nc2ccc(-c3cccc(C(F)(F)F)c3)c(Cl)c21 [Compound 104, 5-Chloro-1,4-dihydro-4,4-dimethyl-6-[3-(trifluoromethyl)phenyl]-2H-3,1-benzoxazin-2-thione]"
